Assay [1] has as its system Escherichia coli. Put plainly: Growth inhibition of Escherichia coli ATCC 25922 after 16 hrs by broth microdilution method. The assay is classed as functional, organism-based. In general terms: Dilution methods test growth across graded concentrations, often in twofold steps.
A further assay relates to Pseudomonas aeruginosa. Put plainly: Growth inhibition of Pseudomonas aeruginosa ATCC 27853 after 16 hrs by broth microdilution method. The assay is classed as functional, organism-based.
The test system of the next assay is Enterococcus faecium. Put plainly: Growth inhibition of Enterococcus faecium ATCC 19434 after 16 hrs by broth microdilution method. The assay is classed as functional, organism-based.
Assay [2] deals with Escherichia coli. As to the kind of experiment: Inhibition of N-terminal His6-tagged Escherichia coli PanK1 expressed in Escherichia coli BL21(DE3) cells at >= 100 uM using pantothenate as substrate in presence of ATP by pyruvate kinase/lactate dehydrogenase enzyme coupled assay.
Assay [3] has as its target T1, Type II pantothenate kinase (Staphylococcus aureus (strain MSSA476)) (UniProt Q6G7I0).
T1 sequence (whole entry): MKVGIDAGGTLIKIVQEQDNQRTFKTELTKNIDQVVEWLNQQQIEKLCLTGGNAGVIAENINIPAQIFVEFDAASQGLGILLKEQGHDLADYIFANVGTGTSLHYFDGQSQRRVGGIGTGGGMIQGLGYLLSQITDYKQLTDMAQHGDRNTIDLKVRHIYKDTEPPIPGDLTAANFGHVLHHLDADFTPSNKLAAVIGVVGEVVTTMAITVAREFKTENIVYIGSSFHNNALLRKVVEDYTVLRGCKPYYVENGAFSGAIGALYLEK
As to the kind of experiment: Substrate activity at N-terminal His6-tagged Staphylococcus aureus PanK2 expressed in Escherichia coli BL21(DE3) cells assessed as ratio of Kcat to Km in presence of ATP/NADH by pyruvate kinase/lactate dehydrogenase enzyme coupled assay.

In assay [4] the target is T1, Type II pantothenate kinase (Staphylococcus aureus (strain MSSA476)). As to the kind of experiment: Inhibition of N-terminal His6-tagged Staphylococcus aureus PanK2 expressed in Escherichia coli BL21(DE3) cells at >= 100 uM using pantothenate as substrate in presence of ATP by pyruvate kinase/lactate dehydrogenase enzyme coupled assay.
Assay [5] concerns the target T2, Type III pantothenate kinase (Pseudomonas aeruginosa (strain ATCC 15692 / DSM 22644 / CIP 104116 /JCM 14847 / LMG 12228 / 1C / PRS 101 / PAO1)) (UniProt Q9HWC1).
T2 sequence (whole entry): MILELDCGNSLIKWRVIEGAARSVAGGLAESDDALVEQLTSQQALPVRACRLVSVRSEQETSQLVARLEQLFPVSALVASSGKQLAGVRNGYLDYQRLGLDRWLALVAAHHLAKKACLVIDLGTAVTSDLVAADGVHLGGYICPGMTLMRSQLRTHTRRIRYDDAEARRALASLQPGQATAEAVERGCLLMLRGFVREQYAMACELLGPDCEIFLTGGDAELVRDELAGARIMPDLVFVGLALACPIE
Put plainly: Inhibition of Pseudomonas aeruginosa PanK3 expressed in Escherichia coli BL21 Rosetta(DE3) cells at >= 100 uM using pantothenate as substrate in presence of ATP by pyruvate kinase/lactate dehydrogenase enzyme coupled assay.

In assay [6] the test system is Escherichia coli. As to the kind of experiment: Substrate activity at N-terminal His6-tagged Escherichia coli PanK1 expressed in Escherichia coli BL21(DE3) cells assessed as Km in presence of ATP/NADH by pyruvate kinase/lactate dehydrogenase enzyme coupled assay.
Assay [7] concerns Escherichia coli. As to the kind of experiment: Substrate activity at N-terminal His6-tagged Escherichia coli PanK1 expressed in Escherichia coli BL21(DE3) cells assessed as Kcat in presence of ATP/NADH by pyruvate kinase/lactate dehydrogenase enzyme coupled assay.
For assay [8], the system named is Escherichia coli. Put plainly: Substrate activity at N-terminal His6-tagged Escherichia coli PanK1 expressed in Escherichia coli BL21(DE3) cells assessed as ratio of Kcat to Km in presence of ATP/NADH by pyruvate kinase/lactate dehydrogenase enzyme coupled assay.
Assay [9] concerns Escherichia coli. Put plainly: Inhibition of N-terminal His6-tagged Escherichia coli PanK1 expressed in Escherichia coli BL21(DE3) cells at 200 uM using pantothenate as substrate in presence of ATP by pyruvate kinase/lactate dehydrogenase enzyme coupled assay.
Assay [10] has as its target T2, Type III pantothenate kinase (Pseudomonas aeruginosa (strain ATCC 15692 / DSM 22644 / CIP 104116 /JCM 14847 / LMG 12228 / 1C / PRS 101 / PAO1)). Put plainly: Inhibition of Pseudomonas aeruginosa PanK3 expressed in Escherichia coli BL21 Rosetta(DE3) cells at 200 uM using pantothenate as substrate in presence of ATP by pyruvate kinase/lactate dehydrogenase enzyme coupled assay.

Assay [11] shares this target. As to the kind of experiment: Substrate activity at Pseudomonas aeruginosa PanK3 expressed in Escherichia coli BL21(DE3) cells assessed as ratio of Kcat to Km in presence of ATP/NADH by pyruvate kinase/lactate dehydrogenase enzyme coupled assay.

Active and inactive are the calls of the source. No cut-off for these calls is given here. A value given as a limit tells only on which side of the number the result lay.

A word on the Km: it is the concentration of substrate that gives half-maximal velocity. In general, kcat refers to the number of substrate molecules converted per active site and unit of time at saturation.

As for `CCCCCCCNCC(C)(C)[C@@H](O)C(=O)NCCC(=O)O`, the “growth inhibition (GI)” value in the assay on Escherichia coli [1], in the assay with Pseudomonas aeruginosa and in the assay with Enterococcus faecium was “inactive” each time.

`CCCCn1cc(CCNC(=O)[C@H](O)C(C)(C)CO)nn1`: the inhibition result (in the assay on Escherichia coli [2]; in assay [4]; in assay [5]) was “inactive” throughout. The Ratio in assay [3] is 115 mM⁻¹ s⁻¹; in the assay on Escherichia coli [8] it was 22 mM⁻¹ s⁻¹. Besides, the “growth inhibition (GI)” value with Escherichia coli [1], in the assay on Pseudomonas aeruginosa and in the assay on Enterococcus faecium was “inactive” in each case. Further, the Km in the assay on Escherichia coli [6] was 50 µM. In the assay on Escherichia coli [7], the kcat is 1.08 s⁻¹.

Take `CCCc1cn(CCCNC(=O)[C@H](O)C(C)(C)CO)nn1`: the inhibition result (in the assay on Escherichia coli [2]; in assay [4]; in assay [5]) was “inactive” throughout. Moreover, the Ratio in assay [3] was determined as 21 mM⁻¹ s⁻¹. Besides, the “growth inhibition (GI)” value in the assay on Escherichia coli [1], in the assay with Pseudomonas aeruginosa and in the assay with Enterococcus faecium was “inactive” each time.

Consider `CC(C)(CO)[C@@H](O)C(=O)NCC(=O)O`, for which the inhibition entry (with Escherichia coli [2]; in assay [4]; in assay [5]) was “inactive” in each case. In addition, the “growth inhibition (GI)” value in the assay with Escherichia coli [1], in the assay on Pseudomonas aeruginosa and with Enterococcus faecium was “inactive” throughout. Also, the Km in the assay with Escherichia coli [6] was determined as 62 µM. In addition, the kcat in the assay on Escherichia coli [7] came to 1.59 s⁻¹. For the same compound, the Ratio in the assay with Escherichia coli [8] stood at 26 mM⁻¹ s⁻¹.

Consider `COC(=O)CCNC(=O)[C@H](O)C(C)(C)CO`, for which the inhibition entry (in the assay with Escherichia coli [2]; in [4]; in assay [5]) was “inactive” throughout. For the same compound, the figures for the Ratio (in assay [3]; in the assay on Escherichia coli [8]) were 8.3 mM⁻¹ s⁻¹ and 2.7 mM⁻¹ s⁻¹, respectively. Moreover, the “growth inhibition (GI)” value with Escherichia coli [1], with Pseudomonas aeruginosa and with Enterococcus faecium was “inactive” throughout. Further, the Km in the assay on Escherichia coli [6] amounted to 292 µM. In addition, the turnover number (kcat) in the assay with Escherichia coli [7] was 0.8 s⁻¹.

`CO[C@@H](C(=O)NCCC(=O)O)C(C)(C)CO`: the inhibition result (in the assay on Escherichia coli [2]; in [4]; in assay [5]) was “inactive” throughout. The “growth inhibition (GI)” value with Escherichia coli [1], in the assay with Pseudomonas aeruginosa and with Enterococcus faecium was “inactive” each time. Further, in the assay with Escherichia coli [6], the Km came out at 16 µM. Also, the catalytic constant (kcat) in the assay on Escherichia coli [7] stood at 0.49 s⁻¹. In the assay on Escherichia coli [8], the Ratio was 31 mM⁻¹ s⁻¹.

For the compound `CNCC(C)(C)[C@@H](O)C(=O)NCCC(=O)O`, the “growth inhibition (GI)” value with Escherichia coli [1], in the assay with Pseudomonas aeruginosa and in the assay with Enterococcus faecium was “inactive” each time. Further, the inhibition entry (with Escherichia coli [9]; in assay [10]) was “Active” in each case.

Consider `CC(C)(CO)[C@@H](O)C(=O)NCc1cn(CCc2ccccc2)nn1`, for which the inhibition result (in the assay on Escherichia coli [2]; in assay [4]; in assay [5]) was “inactive” in each case. The Ratio in assay [3] came to 37 mM⁻¹ s⁻¹; in the assay with Escherichia coli [8], 44 mM⁻¹ s⁻¹. Further, the “growth inhibition (GI)” value with Escherichia coli [1], in the assay on Pseudomonas aeruginosa and with Enterococcus faecium was “inactive” in each case. In the assay on Escherichia coli [6], the Km came out at 25 µM. Also, the kcat in the assay with Escherichia coli [7] was 1.09 s⁻¹.

Consider `COC(=O)CCCNC(=O)[C@H](O)C(C)(C)CO`, for which the inhibition result (with Escherichia coli [2]; in assay [4]; in assay [5]) was “inactive” in each case. Also, in assay [3], the Ratio was 7.1 mM⁻¹ s⁻¹. Moreover, the “growth inhibition (GI)” value in the assay on Escherichia coli [1], in the assay with Pseudomonas aeruginosa and with Enterococcus faecium was “inactive” in each case.

On to `O=C(O)CCNC(=O)[C@H](O)CCO`, for which the inhibition result (in the assay with Escherichia coli [2]; in assay [4]; in assay [5]) was “inactive” throughout. In addition, the “growth inhibition (GI)” value in the assay with Escherichia coli [1], with Pseudomonas aeruginosa and in the assay on Enterococcus faecium was “inactive” throughout. The Ratio in assay [11] stood at 5 mM⁻¹ s⁻¹.

Take `CCCNCC(C)(C)[C@@H](O)C(=O)NCCC(=O)O`: the “growth inhibition (GI)” value in the assay on Escherichia coli [1], in the assay with Pseudomonas aeruginosa and in the assay with Enterococcus faecium was “inactive” each time.

On to `COCC(C)(C)[C@@H](OC)C(=O)NCCC(=O)O`, for which the “growth inhibition (GI)” value in the assay on Escherichia coli [1], with Pseudomonas aeruginosa and in the assay with Enterococcus faecium was “inactive” in each case.

Turning to `CC(=O)CC(=O)OCC(C)(C)[C@@H](O)C(=O)NCCC(=O)O`, the “growth inhibition (GI)” value in the assay with Escherichia coli [1], in the assay on Pseudomonas aeruginosa and in the assay on Enterococcus faecium was “inactive” throughout.

For the compound `CCCCCNC(=O)CCNC(=O)[C@H](O)C(C)(C)CO`, the Ratio in assay [3] is greater than 290 mM⁻¹ s⁻¹.

With `CCCCCn1cc(CNC(=O)[C@H](O)C(C)(C)CO)nn1`, the inhibition result (in the assay with Escherichia coli [2]; in assay [4]; in assay [5]) was “inactive” in each case. For the same compound, the Ratio in assay [3] stood at 54 mM⁻¹ s⁻¹. The “growth inhibition (GI)” value in the assay on Escherichia coli [1], in the assay on Pseudomonas aeruginosa and in the assay on Enterococcus faecium was “inactive” throughout.

For the compound `CCCCCn1cc(CCNC(=O)[C@H](O)C(C)(C)CO)nn1`, the inhibition entry (in the assay on Escherichia coli [2]; in assay [4]; in assay [5]) was “inactive” in each case. Besides, the Ratio in assay [3] came out at 107 mM⁻¹ s⁻¹; in the assay with Escherichia coli [8] it was 22 mM⁻¹ s⁻¹. In addition, the “growth inhibition (GI)” value in the assay with Escherichia coli [1], in the assay with Pseudomonas aeruginosa and in the assay with Enterococcus faecium was “inactive” each time. For the same compound, the Km in the assay on Escherichia coli [6] turned out to be 33 µM. In the assay with Escherichia coli [7], the kcat worked out at 0.72 s⁻¹.

For the compound `CCCCCNCC(C)(C)[C@@H](O)C(=O)NCCC(=O)O`, the “growth inhibition (GI)” value in the assay on Escherichia coli [1], with Pseudomonas aeruginosa and with Enterococcus faecium was “inactive” each time. The inhibition entry in the assay on Escherichia coli [9] was “Active”.

Consider `CC(C)(CNCCc1ccccc1)[C@@H](O)C(=O)NCCC(=O)O`, for which the “growth inhibition (GI)” value in the assay with Escherichia coli [1], with Pseudomonas aeruginosa and in the assay on Enterococcus faecium was “inactive” in each case. The inhibition entry with Escherichia coli [9] is “Active”.

For the compound `COC(=O)CNC(=O)[C@H](O)C(C)(C)CO`, the inhibition entry (in the assay with Escherichia coli [2]; in assay [4]; in assay [5]) was “inactive” in each case. Besides, the Ratio in assay [3] was found to be 115 mM⁻¹ s⁻¹; in the assay with Escherichia coli [8], 5.8 mM⁻¹ s⁻¹. Besides, the “growth inhibition (GI)” value with Escherichia coli [1], with Pseudomonas aeruginosa and with Enterococcus faecium was “inactive” in each case. In addition, the Michaelis constant (Km) in the assay on Escherichia coli [6] was 156 µM. Moreover, in the assay on Escherichia coli [7], the kcat is 0.91 s⁻¹.

As to `COCC(C)(C)[C@@H](O)C(=O)NCCC(=O)O`, the “growth inhibition (GI)” value with Escherichia coli [1], in the assay with Pseudomonas aeruginosa and with Enterococcus faecium was “inactive” each time. The inhibition result (in the assay on Escherichia coli [9]; in [10]) was “Active” throughout.

As to `CCCCCc1cn(CCNC(=O)[C@H](O)C(C)(C)CO)nn1`, the inhibition result (in the assay on Escherichia coli [2]; in assay [4]; in assay [5]) was “inactive” each time. In addition, the Ratio came out at 97 mM⁻¹ s⁻¹ in assay [3] and 53 mM⁻¹ s⁻¹ in the assay with Escherichia coli [8]. Moreover, the “growth inhibition (GI)” value with Escherichia coli [1], in the assay on Pseudomonas aeruginosa and with Enterococcus faecium was “inactive” in each case. Further, in the assay with Escherichia coli [6], the Km was found to be 21 µM. Further, the kcat in the assay with Escherichia coli [7] is 1.11 s⁻¹.

The record behind these values is ChEMBL document CHEMBL4261651, “Probing the ligand preferences of the three types of bacterial pantothenate kinase” (Bioorg Med Chem, 2018).
